Measurements reported in patent publication US9777008B2, “PRMT5 inhibitors and uses thereof” (Epizyme, Inc., priority 2012, dated 2017).

Target: PRMT5/MEP50 (Homo sapiens (Human), UniProt O14744)
Test: PRMT5 Biochemical Assay (PRMT5/MEP50 enzyme assay on peptide substrate, 3H-SAM Flashplate)
Excerpt: S-adenosylmethionine (SAM), S-adenosylhomocysteine (SAH), bicine, KCl, Tween20, dimethylsulfoxide (DMSO), bovine skin gelatin (BSG), and Tris(2-carboxyethyl)phosphine hydrochloride solution (TCEP) were purchased from Sigma-Aldrich at the highest level of purity possible. ^3H-SAM was purchase from American Radiolabeled Chemicals with a specific activity of 80 Ci/mmol. 384-well streptavidin Flashplates were purchased from PerkinElmer.
Peptide representative of human histone H4 residues 1-15 was synthesized with a C-terminal linker-affinity tag motif and a C-terminal amide cap by 21st Century Biochemicals. The peptide was high high-performance liquid chromatography (HPLC) purified to greater than 95% purity and confirmed by liquid chromatography mass spectrometry (LC-MS). The sequence was Ac-[…][K-Biot]-amide (SEQ ID NO.:3).
Molecular Biology: Full-length human PRMT5 (NM_006109.3) transcript variant 1 clone was amplified from a fetal brain cDNA library, incorporating flanking 5′ sequence encoding a FLAG tag ([…]) (SEQ ID NO.:4) fused directly to Ala 2 of PRMT5. Full-length human MEP50 (NM_024102) clone was amplified from a human testis cDNA library incorporating a 5′ sequence encoding a 6-histidine tag (MHHHHHH) (SEQ ID NO.:5) fused directly to Arg 2 of MEP50. The amplified genes were sublconed into pENTR/D/TEV (Life Technologies) and subsequently transferred by Gateway™ attL×attR recombination to pDEST8 baculvirus expression vector (Life Technologies).
Recombinant baculovirus and Baculovirus-Infected Insect Cells (BIIC) were generated according to Bac-to-Bac kit instructions (Life Technologies) and Wasilko, 2006, respectively. Protein over-expression was accomplished by infecting exponentially growing Spodoptera frugiperda (SF9) cell culture at 1.2×10^6 cell/ml with a 5000 fold dilution of BIIC stock. Infections were carried out at 27° C. for 72 hours, harvested by centrifugation, and stored at −80° C. for purification.
Flag-PRMT5/6His-MeP50 was eluted with 300 mM Imidazole in the same buffer. The purity of recovered protein was 87%. Reference: Wasilko, D. J. and S. E. Lee: “TIPS: titerless infected-cells preservation and scale-up” Bioprocess J., 5 (2006), pp. 29-32.
General Procedure for PRMT5/MEP50 Enzyme Assays on Peptide Substrates.
The assays were all performed in a buffer consisting of 20 mM Bicine (pH=7.6), 1 mM TCEP, 0.005% BSG, and 0.002% Tween20, prepared on the day of use. Compounds in 100% DMSO (1 ul) were spotted into a polypropylene 384-well V-bottom plates (Greiner) using a Platemate Plus outfitted with a 384-channel head (Thermo Scientific). DMSO (1 ul) was added to Columns 11, 12, 23, 24, rows A-H for the maximum signal control and 1 ul of SAH, a known product and inhibitor of PRMT5/MEP50, was added to columns 11, 12, 23, 24, rows I-P for the minimum signal control. A cocktail (40 ul) containing the PRMT5/MEP50 enzyme and the peptide was added by Multidrop Combi (Thermo-Fisher). The compounds were allowed to incubate with PRMT5/MEP50 for 30 min at 25 degrees Celsius, then a cocktail (10 ul) containing ^3H-SAM was added to initiate the reaction (final volume=51 ul). The final concentrations of the components were as follows: PRMT5/MEP50 was 4 nM, ^3H-SAM was 75 nM, peptide was 40 nM, SAH in the minimum signal control wells was 100 uM, and the DMSO concentration was 1%. The assays were stopped by the addition of non-radioactive SAM (10 ul) to a final concentration of 600 uM, which dilutes the ^3H-SAM to a level where its incorporation into the peptide substrate is no longer detectable. 50 ul of the reaction in the 384-well polypropylene plate was then transferred to a 384-well Flashplate and the biotinylated peptides were allowed to bind to the streptavidin surface for at least 1 hour before being washed three times with 0.1% Tween20 in a Biotek ELx405 plate washer. […]

Sequence of PRMT5/MEP50 (O14744 other isoform, or with tags, fused parts or gaps): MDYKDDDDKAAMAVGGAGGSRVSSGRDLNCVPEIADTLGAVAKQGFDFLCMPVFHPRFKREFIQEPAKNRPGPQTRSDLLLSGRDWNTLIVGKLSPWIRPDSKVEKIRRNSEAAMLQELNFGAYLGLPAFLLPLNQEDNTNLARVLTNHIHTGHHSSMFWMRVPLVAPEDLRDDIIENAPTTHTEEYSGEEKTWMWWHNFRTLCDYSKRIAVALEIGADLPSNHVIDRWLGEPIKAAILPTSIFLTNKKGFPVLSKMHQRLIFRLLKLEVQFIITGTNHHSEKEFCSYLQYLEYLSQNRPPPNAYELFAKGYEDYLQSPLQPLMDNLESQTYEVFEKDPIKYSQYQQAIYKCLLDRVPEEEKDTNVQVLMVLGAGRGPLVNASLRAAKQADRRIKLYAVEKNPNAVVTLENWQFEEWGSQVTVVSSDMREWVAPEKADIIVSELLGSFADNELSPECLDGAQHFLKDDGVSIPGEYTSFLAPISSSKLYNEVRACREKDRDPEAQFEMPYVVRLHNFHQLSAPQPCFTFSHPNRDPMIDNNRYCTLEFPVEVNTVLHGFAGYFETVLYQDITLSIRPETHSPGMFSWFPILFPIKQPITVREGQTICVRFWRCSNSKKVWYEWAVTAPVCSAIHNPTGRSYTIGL
Sequence of PRMT5/MEP50 (Q9BQA1 other isoform, or with tags, fused parts or gaps partner): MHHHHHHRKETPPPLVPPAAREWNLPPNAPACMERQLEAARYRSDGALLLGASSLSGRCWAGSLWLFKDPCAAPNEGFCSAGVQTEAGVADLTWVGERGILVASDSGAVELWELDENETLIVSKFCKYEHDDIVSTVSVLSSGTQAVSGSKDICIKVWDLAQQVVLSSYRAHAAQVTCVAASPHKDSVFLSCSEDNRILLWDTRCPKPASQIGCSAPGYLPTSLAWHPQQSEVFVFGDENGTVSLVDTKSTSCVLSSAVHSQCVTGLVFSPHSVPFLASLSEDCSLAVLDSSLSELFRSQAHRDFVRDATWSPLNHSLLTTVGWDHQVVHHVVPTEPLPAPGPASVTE

SMILES	IC50 [nM]
OC(COC1CCCNC1)CN1CCc2ccccc2C1 (stereo not shown) [Compound 297]	> 40000
CCOC(=O)C1c2ccccc2CCN1CC(O)COc1cccc(-c2ccc3ncn(C)c3c2)c1 (stereo not shown) [Compound 193]	> 40000
CC1CN(CC(O)COc2cccc(CNC3CCCC3)c2)Cc2ccccc21 (stereo not shown) [Compound 56]	> 40000
Cn1cnc2ccc(-c3cccc(OC[C@@H](O)CN4CCc5ccccc5C4)c3)cc21 [Compound 173]	101 to 1000
OC(CNc1cc(-c2ccc3ncn(C4CNC4)c3c2)ccn1)CN1CCc2ccccc2C1 (stereo not shown) [Compound 229]	< 100
OC(CNc1cc(-c2ccc3ncn(C4COC4)c3c2)ccn1)CN1CCc2ccccc2C1 (stereo not shown) [Compound 265]	< 100
COc1ccc(Cn2nccc2-c2ccc(OC[C@H](O)CN3CCc4ccccc4C3)cc2)cc1 [Compound 37]	1000 to 10000
OC(CNc1cc(-c2ncc3ccn(C4CCNCC4)c3n2)ccn1)CN1CCc2ccccc2C1 (stereo not shown) [Compound 255]	< 100
COc1cc2c(cc1OC)CN(CC(O)COc1cccc(-c3ccc4ncn(C)c4c3)c1)CC2 (stereo not shown) [Compound 146]	> 40000
Cn1cc2ccc(-c3ccnc(NCC(O)CN4CCc5ccccc5C4)c3)cc2n1 (stereo not shown) [Compound 236]	< 100
OC(COc1cccc(-c2cccc3[nH]cnc23)c1)CN1CCc2ccccc2C1 (stereo not shown) [Compound 223, 1-(3-(1H-benzo[d]imidazol-4-yl)phenoxy)-3-(3,4-dihydroisoquinolin-2(1H)-yl)propan-2-ol]	< 100
Cn1cnc2ccc(-c3cccc(OCC(O)CN4CCc5ccccc5C4)c3)nc21 (stereo not shown) [Compound 189, 1-(3,4-dihydroisoquinolin-2(1H)-yl)-3-(3-(3-methyl-3H-imidazo[4,5-b]pyridin-5-yl)phenoxy)propan-2-ol]	< 100
Cn1cnc2ccc(-c3cccc(OC[C@H](O)CN4CCc5ccccc5C4)c3)cc21 [Compound 174]	< 100
OC(COc1cccc(-c2ccc3ncn(C4CCNCC4)c3c2)c1)CN1CCc2ccccc2C1 (stereo not shown) [Compound 220]	< 100
CCn1ccnc1COCC(O)CN1CCc2ccccc2C1 (stereo not shown) [Compound 295]	> 40000
CNC(=O)Cn1ccc2cnc(-c3ccnc(NCC(O)CN4CCc5ccccc5C4)c3)nc21 (stereo not shown) [Compound 245]	< 100
CN1CCC(n2cnc3ccc(-c4cccc(OCC(O)CN5CCc6ccccc6C5)c4)cc32)CC1 (stereo not shown) [Compound 221]	< 100
O[C@H](COc1cccc(CNC2CCCC2)c1)CN1CCc2ccccc2C1 [Compound 22]	101 to 1000
COc1ccc(Cn2ccc(-c3ccc(OC[C@@H](O)CN4CCc5ccccc5C4)cc3)n2)cc1 [Compound 42]	10000 to 40000

SMILES	IC50 [nM]
OC(CNc1cc(-c2ncc3ccn(C4CNC4)c3n2)ccn1)CN1CCc2ccccc2C1 (stereo not shown) [Compound 254]	< 100
Cn1cnc2ccc(-c3ccnc(NCC(O)CN4CCc5ccccc5C4)c3)nc21 (stereo not shown) [Compound 238, 1-(3,4-dihydroisoquinolin-2(1H)-yl)-3-((4-(3-methyl-3H-imidazo[4,5-b]pyridin-5-yl)pyridin-2-yl)amino)propan-2-ol]	< 100
Cn1cncc1C(=O)Nc1cccc(OC[C@@H](O)CN2CCc3ccccc3C2)c1 [Compound 260]	1000 to 10000
CC(=O)N1CCC(n2ccc3cnc(-c4ccnc(NCC(O)CN5CCc6ccccc6C5)c4)nc32)CC1 (stereo not shown) [Compound 256]	< 100
OC(COc1cccc(-c2cccc3cccnc23)c1)CN1CCc2ccccc2C1 (stereo not shown) [Compound 65, 1-(3,4-dihydroisoquinolin-2(1H)-yl)-3-(3-(quinolin-8-yl)phenoxy)propan-2-ol]	< 100
COc1ccc(Cn2nccc2-c2ccc(OC[C@@H](O)CN3CCc4ccccc4C3)cc2)cc1 [Compound 38]	> 40000
Cn1ccc2cnc(-c3ccnc(NCC(O)CN4CCc5ccccc5C4)c3)nc21 (stereo not shown) [Compound 239, 1-(3,4-dihydroisoquinolin-2(1H)-yl)-3-((4-(7-methyl-7H-pyrrolo[2,3-d]pyrimidin-2-yl)pyridin-2-yl)amino)propan-2-ol]	< 100
CN1CC(n2cnc3ccc(-c4ccnc(NCC(O)CN5CCc6ccccc6C5)c4)cc32)C1 (stereo not shown) [Compound 230]	< 100
CN1CCC(OCC(O)CN2CCc3ccccc3C2)CC1 (stereo not shown) [Compound 293]	> 40000
Cn1ncc2cc(-c3cccc(OCC(O)CN4CCc5ccccc5C4)c3)ccc21 (stereo not shown) [Compound 108]	< 100
Cn1cnc2ccc(-c3cccc(OCC(O)CN4CCc5ccccc5C4COc4ccccc4)c3)cc21 (stereo not shown) [Compound 178]	> 40000
OC(COc1cccc(-c2ncc3ccn(C4CCNCC4)c3n2)c1)CN1CCc2ccccc2C1 (stereo not shown) [Compound 253]	< 100
Cn1cnc2ccc(-c3ccnc(NCC(O)CN4CCc5ccccc5C4)c3)cc21 (stereo not shown) [Compound 118, 1-(3,4-Dihydroisoquinolin-2(1H)-yl)-3-((4-(1-methyl-1H-benzo[d]imidazol-6-yl)pyridin-2-yl)amino)propan-2-ol]	< 100
COc1cccc2c1CCN(CC(O)COc1cccc(CNC3CCCC3)c1)C2 (stereo not shown) [Compound 54]	> 40000
O[C@@H](COc1cccc(-c2cccc3cccnc23)c1)CN1CCc2ccccc2C1 [Compound 257, (R)-1-(3,4-dihydroisoquinolin-2(1H)-yl)-3-(3-(quinolin-8-yl)phenoxy)propan-2-ol]	< 100
Cn1cnc2ccc(-c3ccnc(NC[C@H](O)CN4CCc5ccccc5C4)c3)cc21 [Compound 275]	< 100
Cn1ncc2ccc(-c3cccc(OCC(O)CN4CCc5ccccc5C4)c3)cc21 (stereo not shown) [Compound 106]	< 100
OC(CNc1cc(-c2ccc3ncn(C4CCOCC4)c3c2)ccn1)CN1CCc2ccccc2C1 (stereo not shown) [Compound 251, 1-(3,4-dihydroisoquinolin-2(1H)-yl)-3-((4-(1-(tetrahydro-2H-pyran-4-yl)-1H-benzo[d]imidazol-6-yl)pyridin-2-yl)amino)propan-2-ol]	< 100
